The source made the active and inactive calls. No cut-off for these calls is given here. Some results are limits rather than exact numbers.

The target in assay [1] is T1, Proteasome component C5 (Homo sapiens) (UniProt P20618).
T1 sequence (whole entry): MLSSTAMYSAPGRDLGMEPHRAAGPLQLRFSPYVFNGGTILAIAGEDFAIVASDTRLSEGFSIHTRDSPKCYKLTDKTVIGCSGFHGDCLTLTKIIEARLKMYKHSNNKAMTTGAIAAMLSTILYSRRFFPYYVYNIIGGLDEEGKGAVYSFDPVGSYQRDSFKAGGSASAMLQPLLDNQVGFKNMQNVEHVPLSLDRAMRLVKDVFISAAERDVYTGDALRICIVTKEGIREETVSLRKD
The assay can be described thus: Inhibition of caspase-like activity of beta1 subunit of 20S proteasome in human erythrocytes at 100 uM using Z-LLE-MCA as substrate preincubated with enzyme for 10 mins followed by substrate addition and measured after 3 hrs by fluorescence spectrophotometeric analysis.

The target in assay [2] is T2, Proteasome Macropain subunit MB1 (Homo sapiens) (UniProt P28074).
T2 sequence (whole entry): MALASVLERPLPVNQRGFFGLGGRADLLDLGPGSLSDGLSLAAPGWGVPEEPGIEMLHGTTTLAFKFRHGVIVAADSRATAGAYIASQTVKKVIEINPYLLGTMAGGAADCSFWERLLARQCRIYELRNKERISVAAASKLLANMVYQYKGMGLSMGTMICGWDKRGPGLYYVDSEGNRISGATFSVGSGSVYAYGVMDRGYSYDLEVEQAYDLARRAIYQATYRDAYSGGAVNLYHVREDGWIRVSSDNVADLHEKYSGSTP
The experiment in a line: Inhibition of chymotrypsin-like activity of beta5 subunit of 20S proteasome in human erythrocytes at 100 uM using Suc-LLVY-MCA as substrate preincubated with enzyme for 10 mins followed by substrate addition and measured after 3 hrs by fluorescence spectrophotometeric analysis.

The test system of assay [3] is HL-60. The assay can be described thus: Induction of apoptosis in human HL60 cells assessed as DNA fragmentation at 100 uM preincubated with 50 uM pan caspase inhibitor, z-VAD-FMK for 1 hr followed by incubation with compound for 4 hrs by ethidium bromide staining based agarose gel electrophoresis method. The format is functional, cell-based.
The nature of assay [4]: Binding affinity to NAC methyl ester in PBS-MeOH (7:3) solution at 1 mM by HPLC analysis.
For assay [5], the system named is HL-60. The assay can be described thus: Antiproliferative activity against human HL60 cells assessed as cell growth inhibition incubated for 2 days by MTT assay. The format is functional, cell-based. Particulars: HL-60, 48 h. A general note: Tetrazolium dyes change colour on reduction, which living cells bring about.
For assay [6], the target named is Proteasome Macropain subunit (Homo sapiens) (UniProt P49721). The experiment in a line: Inhibition of trypsin-like activity of beta2 subunit of 20S proteasome in human erythrocytes at 100 uM using Boc-LRR-MCA as substrate preincubated with enzyme for 10 mins followed by substrate addition and measured after 3 hrs by fluorescence spectrophotometric analysis.
Proteasome Macropain subunit (Homo sapiens), sequence (P49721 whole entry): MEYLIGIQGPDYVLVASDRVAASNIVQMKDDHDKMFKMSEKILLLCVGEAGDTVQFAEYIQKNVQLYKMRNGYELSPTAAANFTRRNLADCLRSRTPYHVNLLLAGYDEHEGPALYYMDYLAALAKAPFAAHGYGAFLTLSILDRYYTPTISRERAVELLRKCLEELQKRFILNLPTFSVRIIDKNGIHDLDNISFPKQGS
In assay [7] the test system is HL-60. The assay can be described thus: Inhibition of proteasome in human HL60 cells assessed as accumulation of ubiquitinated proteins at 100 uM incubated for 4 hrs by Western blot analysis. It counts as functional, cell-based.
In assay [8] the test system is HL-60. The assay can be described thus: Induction of apoptosis in human HL60 cells assessed as increase in DNA fragmentation incubated for 4 hrs by ethidium bromide staining based agarose gel electrophoresis method. The format is functional, cell-based.
For assay [9], the system named is HL-60. The assay can be described thus: Induction of apoptosis in human HL60 cells assessed as increase in cleavage of caspase 3 incubated for 4 hrs by Western blot analysis. It counts as functional, cell-based. (Immunoblotting shows a protein as a band on a membrane.)
The target in assay [10] is T3, Proteasome Macropain subunit MB1 (Homo sapiens, UniProt P28074).
T3 sequence (P28074 whole entry): T2 sequence (whole entry)
The experiment in a line: (§1) Inhibition of chymotrypsin-like activity of beta5 subunit of 20S proteasome in human erythrocytes using Suc-LLVY-MCA as substrate preincubated with enzyme for 10 mins followed by substrate addition and measured after 3 hrs by fluorescence spectrophotometric analysis.

Assay [11] relates to HL-60. The assay can be described thus: Induction of apoptosis in human HL60 cells assessed as ROS generation. It counts as functional, cell-based.
The subject of assay [12] is HL-60. The experiment in a line: Induction of apoptosis in human HL60 cells assessed as DNA fragmentation at 50 uM preincubated with 50 uM pan caspase inhibitor, z-VAD-FMK for 1 hr followed by incubation with compound for 4 hrs by ethidium bromide staining based agarose gel electrophoresis method. It counts as functional, cell-based.
In assay [13] the test system is HL-60. The experiment in a line: Inhibition of proteasome in human HL60 cells assessed as increase in accumulation of ubiquitinated proteins at 12.5 to 50 uM incubated for 4 hrs by Western blot analysis. It counts as functional, cell-based.
Assay [14] has as its target Proteasome Macropain subunit (Homo sapiens) (UniProt P49721). The assay can be described thus: Inhibition of trypsin-like activity of beta2 subunit of 20S proteasome in human erythrocytes using Boc-LRR-MCA as substrate preincubated with enzyme for 10 mins followed by substrate addition and measured after 3 hrs by fluorescence spectrophotometric analysis. The format is cell-based.

For assay [15], the target named is T1, Proteasome component C5 (Homo sapiens). The experiment in a line: Inhibition of caspase-like activity of beta1 subunit of 20S proteasome in human erythrocytes using Z-LLE-MCA as substrate preincubated with enzyme for 10 mins followed by substrate addition and measured after 3 hrs by fluorescence spectrophotometeric analysis.
Assay [16] has as its target T2, Proteasome Macropain subunit MB1 (Homo sapiens). The assay is described as §1.
Assay [17] relates to HL-60. The experiment in a line: Antiproliferative activity against human HL60 cells assessed as cell viability at 0.5 to 1 uM incubated for 48 hrs in presence of 5 mM nucleophile, NAC by trypan blue dye exclusion assay. The format is functional, cell-based.
The next assay deals with Proteasome. The experiment in a line: Inhibition of proteasome in human HL60 cells assessed as accumulation of ubiquitinated proteins at 5 uM incubated for 4 hrs in presence of 5 mM nucleophile, NAC by Western blot analysis. The format is subcellular.
A short description of assay [18]: Binding affinity to NAC methyl ester in PBS-MeOH (7:3) solution assessed as methyl 3-[[(1R,6S)-6-[[(1S,4aR,6R,8aR)-6-hydroxy-5,5,8a-trimethyl-2-methylene-decalin-1-yl]methyl]-3-(hydroxymethyl)-2,5-dioxo-7-oxabicyclo[4.1.0]heptan-4-yl]sulfanyl]-2-acetamido-propanoate formation at 1 mM by HPLC analysis.
A short description of assay [19]: Binding affinity to NAC methyl ester in PBS-MeOH (7:3) solution at 1 mM by ESI/LC-MS analysis.
Assay [20] deals with HL-60. The experiment in a line: Induction of apoptosis in human HL60 cells assessed as DNA fragmentation at 5 uM preincubated with 50 uM pan caspase inhibitor, z-VAD-FMK for 1 hr followed by incubation with compound for 4 hrs by ethidium bromide staining based agarose gel electrophoresis method. The format is functional, cell-based.
The subject of assay [21] is HL-60. The experiment in a line: Induction of apoptosis in human HL60 cells assessed as caspase 3 cleavage at 5 uM incubated for 4 hrs in presence of 5 mM nucleophile, NAC by Western blot analysis. It counts as functional, cell-based.
Assay [22] deals with HL-60. The assay can be described thus: Inhibition of proteasome in human HL60 cells assessed as increase in accumulation of ubiquitinated proteins at 1.25 to 5 uM incubated for 4 hrs by Western blot analysis. It counts as functional, cell-based.
In assay [23] the test system is HL-60. The assay can be described thus: Antiproliferative activity against human HL60 cells assessed as cell viability at 5 to 10 uM incubated for 48 hrs in presence of 5 mM nucleophile, NAC by trypan blue dye exclusion assay. The format is functional, cell-based.
Assay [24] is described as follows: Binding affinity to NAC methyl ester assessed as methyl 3-[[(1R,6S)-6-[[(1S,4aR,6R,8aR)-6-hydroxy-5,5,8a-trimethyl-2-methylene-decalin-1-yl]methyl]-2,5-dioxo-7-oxabicyclo[4.1.0]hept-3-en-3-yl]methylsulfanyl]-2-acetamido-propanoate formation by UV spectra analysis.
Assay [25] can be described thus: Binding affinity to NAC methyl ester in PBS-MeOH (7:3) solution assessed as methyl 3-[[(1R,6S)-6-[[(1S,4aR,6R,8aR)-6-hydroxy-5,5,8a-trimethyl-2-methylene-decalin-1-yl]methyl]-2,5-dioxo-7-oxabicyclo[4.1.0]hept-3-en-3-yl]methylsulfanyl]-2-acetamido-propanoate formation at 1 mM by HPLC analysis.
Assay [26] is described as follows: Binding affinity to NAC methyl ester in PBS-MeOH (7:3) solution assessed as methyl 4-[[(1R,6S)-6-[[(1S,4aR,6R,8aR)-6-hydroxy-5,5,8a-trimethyl-2-methylene-decalin-1-yl]methyl]-3-[(2-acetamido-3-methoxy-3-oxo-propyl)sulfanylmethyl]-2,5-dioxo-7-oxabicyclo[4.1.0]heptan-4-yl]sulfanyl]-3-acetamido-butanoate formation at 1 mM by HPLC analysis.
For a further assay, the system named is COLO 201. The assay can be described thus: Cytotoxicity against human COLO201 cells. The format is functional, cell-based.
A short description of assay [27]: Binding affinity to NAC methyl ester in PBS-MeOH (7:3) solution assessed as disappearance of peak regarding parent compound at 1 mM measured within 1 min by HPLC analysis.

For orientation: IC50 means the concentration that gives 50% inhibition. In the case of `C=C1CC[C@H]2C(C)(C)[C@H](O)CC[C@]2(C)[C@H]1C[C@]12O[C@H]1[C@H](O)C(CO)=CC2=O`, the inhibition entry (in [1]; in assay [2]; in [6]; in the assay on HL-60 [7]) was “inactive” in each case. The outcome (with HL-60 [3]; in [4]; in the assay with HL-60 [11]) was inactive. In addition, the IC50 in the assay on HL-60 [5] is 25.3 µM; in assay [10], more than 100 µM. In addition, the Activity entry in the assay on HL-60 [8] and in the assay with HL-60 [9] was “Dose-dependent effect” each time.

As for `C=C1CC[C@H]2C(C)(C)[C@H](O)CC[C@]2(C)[C@H]1C[C@]12O[C@H]1[C@H](O)C(COC(=O)C[C@H](C)O)=CC2=O`, the outcome with HL-60 [12] and in the assay on HL-60 [11] was inactive. Further, the inhibition result with HL-60 [13] was “Active”. The IC50 came to 15 µM with HL-60 [5] and 31.9 µM in assay [10]. Further, the inhibition entry in assay [14], in assay [15] and in [16] was “Dose-dependent effect” each time. Also, the Activity entry with HL-60 [8] and in the assay with HL-60 [9] was “Dose-dependent effect” throughout.

As for `C=C1CC[C@H]2C(C)(C)[C@H](O)CC[C@]2(C)[C@H]1C[C@]12O[C@H]1[C@H](O)C(COC(=O)[C@H](O)[C@H](C)O)=CC2=O`, the outcome with HL-60 [12] and with HL-60 [11] was inactive. Moreover, in the assay on HL-60 [13], the inhibition result is “Active”. Also, the IC50 in the assay on HL-60 [5] was determined as 21.6 µM; in assay [10] it was 93.6 µM. Further, the inhibition entry in assay [14], in assay [15] and in [16] was “Dose-dependent effect” in each case. Also, the Activity result in the assay on HL-60 [8] and in the assay on HL-60 [9] was “Dose-dependent effect” throughout.

Consider `C=C1CC[C@H]2C(C)(C)[C@H](O)CC[C@]2(C)[C@H]1C[C@]12O[C@H]1C(=O)C(CO)=CC2=O`, for which the inhibition entry in the assay with HL-60 [17] and in the assay on Proteasome was “inactive” in each case. In addition, the result in [18] and in assay [19] was Active. Further, the values for the IC50 (with HL-60 [5]; in assay [10]) were 0.3 µM and 26.3 µM, respectively. The inhibition result in assay [14], in assay [15] and in assay [16] was “Dose-dependent effect” each time. Further, the Activity entry in the assay on HL-60 [8] and with HL-60 [9] was “Dose-dependent effect” in each case. For the same compound, the result in the assay on HL-60 [20], in the assay on HL-60 [21] and with HL-60 [11] was inactive. Besides, in the assay with HL-60 [22], the inhibition result was “Active”.

In the case of `C=C1CC[C@H]2C(C)(C)[C@H](O)CC[C@]2(C)[C@H]1C[C@]12O[C@H]1C(=O)C(COC(=O)C[C@H](C)O)=CC2=O`, the outcome in the assay with HL-60 [23], in the assay on HL-60 [20], in the assay on HL-60 [21] and in the assay with HL-60 [11] was inactive. In addition, the inhibition entry with Proteasome was “inactive”. The result in assay [24], in assay [25], in [19] and in [26] was Active. Further, the IC50 in the assay with HL-60 [5] amounted to 1.3 µM; in assay [10], 5.3 µM. Besides, the inhibition result in [14], in assay [15] and in assay [16] was “Dose-dependent effect” throughout. Besides, the Activity entry in the assay with HL-60 [8] and in the assay with HL-60 [9] was “Dose-dependent effect” in each case. Also, the inhibition entry in the assay with HL-60 [22] is “Active”.

For the compound `C=C1CC[C@H]2C(C)(C)[C@H](O)CC[C@]2(C)[C@H]1C[C@]12O[C@H]1C(=O)C(COC(=O)[C@H](O)[C@H](C)O)=CC2=O`, the result with HL-60 [23], in the assay with HL-60 [20], in the assay on HL-60 [21] and in the assay on HL-60 [11] was inactive. In the assay on Proteasome, the inhibition result was “inactive”. Also, the outcome in assay [24], in assay [25], in assay [27], in assay [19] and in assay [26] was Active. The IC50 in the assay with HL-60 [5] was found to be 2.6 µM; in the assay with COLO 201, 96.6 µM; in assay [10], 5.7 µM. Further, the inhibition result in assay [14], in [15] and in assay [16] was “Dose-dependent effect” each time. In addition, the Activity result in the assay with HL-60 [8] and with HL-60 [9] was “Dose-dependent effect” in each case. For the same compound, the inhibition result with HL-60 [22] was “Active”.

The values are drawn from ChEMBL document CHEMBL4406908, “Identification of neomacrophorins isolated from Trichoderma sp. 1212-03 as proteasome inhibitors” (Bioorg Med Chem, 2019).
